In paper PMC12832182 (Science (New York, N.Y.), 2025):

Target: T1, non-Cathepsin L-processed, but self-cleaved enzyme (LyLAP) (Homo sapiens, UniProt Q6P4A8)
T1 sequence (Q6P4A8 39-227): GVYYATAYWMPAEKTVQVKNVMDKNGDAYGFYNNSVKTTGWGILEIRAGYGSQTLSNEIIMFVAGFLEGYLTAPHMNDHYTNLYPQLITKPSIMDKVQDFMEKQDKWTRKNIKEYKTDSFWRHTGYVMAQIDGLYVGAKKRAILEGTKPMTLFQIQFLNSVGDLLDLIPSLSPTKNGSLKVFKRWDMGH
T1 sequence (Q6P4A8 228-553): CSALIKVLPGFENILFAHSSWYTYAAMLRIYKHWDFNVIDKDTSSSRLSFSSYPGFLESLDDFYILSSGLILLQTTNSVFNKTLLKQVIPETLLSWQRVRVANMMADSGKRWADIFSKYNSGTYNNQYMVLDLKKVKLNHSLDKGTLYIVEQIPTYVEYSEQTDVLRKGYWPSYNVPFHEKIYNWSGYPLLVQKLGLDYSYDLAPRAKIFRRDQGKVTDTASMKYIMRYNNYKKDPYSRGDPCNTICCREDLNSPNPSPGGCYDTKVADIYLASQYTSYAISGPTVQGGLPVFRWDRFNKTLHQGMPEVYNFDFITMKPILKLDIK
Test: fluorogenic AMC release
Assay type: biochemical
Conditions: lysosomal pH buffer pH 4.5, 37°C; without cathepsin L preactivation

Cc1cc(=O)oc2cc(NC(=O)[C@@H](N)CC(C)C)ccc12 [Leu-AMC, L-Leucine-7-amido-4-methylcoumarin]
fluorogenic AMC release: increased catalysis toward single amino acid substrates and, more substantially, toward tripeptide substrates
